Assay results from patent US20230271950A1, “ANTIBACTERIAL PICOLINAMIDE COMPOUNDS” (University of Notre Dame Du Lac, priority 2020, published 2023).
Values after ≈ are worked out from the molar mass of the structure shown. Like-named read-outs stand apart in the source and are kept apart here.

Tests used:
MRSA (NRS70, NRS119) = assay: MIC against MRSA strains; assay type: cell-based, Staphylococcus aureus; settings: for MIC: Staphylococcus aureus
C. difficile = assay: MIC by broth microdilution against C. difficile strains; assay type: cell-based, Clostridioides difficile; settings: for MIC: Clostridioides difficile; for MIC C. difficile: ATCC 43255, ribotype 087; for Selectivity: MIC MRSA/MIC C. difficile, Table 3
[1] = NRS70 strain, Table 2 (SAR^1), read-out: MIC MRSA
[2] = ATCC43255, ATCC 43255, ribotype 087, Table 2 (SAR^1), read-out: MIC C. difficile
[3] = MRSA strain NRS70, read-out: MIC against MRSA
[4] = ATCC43255, C. difficile ATCC 43255, read-out: MIC against C. difficile
[5] = NRS70 strain, Table 3 (SAR^2 and SAR^3), read-out: MIC MRSA
[6] = ATCC43255, ATCC 43255, ribotype 087, Table 3 (SAR^2 and SAR^3), read-out: MIC C. difficile
[7] = ATCC43255, C. difficile ATCC43255, FIG. 2 legend, read-out: MIC of positive controls

SMILES | MIC (MRSA (NRS70, NRS119); [1]) | MIC (C. difficile; [2]) | MIC (MRSA (NRS70, NRS119); [5]) | MIC (C. difficile; [6]) | Selectivity (C. difficile) | also measured
CCOC(=O)c1coc(NC(=O)c2ccnc(-c3ccc(Cl)c(Cl)c3)c2)n1 [Compound 15, Ethyl 2-(2-(3,4-dichlorophenyl)isonicotinamido)oxazole-4-carboxylate] | 1 µg/mL (≈ 2.46 µM) | 0.125 µg/mL (≈ 0.308 µM) |  |  |  | 
O=C(Nc1nccs1)c1ccnc(-c2ccc(Cl)c(Cl)c2)c1 [Compound 16, 2-(3,4-Dichlorophenyl)-N-(thiazol-2-yl)isonicotinamide] | ≥ 256 µg/mL | ≥ 128 µg/mL |  |  |  | MIC (MRSA (NRS70, NRS119); [3]): ≥ 64 µg/mL; MIC (C. difficile; [4]): ≥ 64 µg/mL
O=C(Nc1ncc[nH]1)c1ccnc(-c2ccc(Cl)c(Cl)c2)c1 [Compound 17, 2-(3,4-Dichlorophenyl)-N-(1H-imidazol-2-yl)isonicotinamide] | ≥ 256 µg/mL | ≥ 128 µg/mL |  |  |  | MIC (MRSA (NRS70, NRS119); [3]): ≥ 64 µg/mL; MIC (C. difficile; [4]): ≥ 64 µg/mL
O=C(Nc1ccon1)c1ccnc(-c2ccc(Cl)c(Cl)c2)c1 [Compound 18, 2-(3,4-Dichlorophenyl)-N-(isoxazol-3-yl)isonicotinamide] | ≥ 256 µg/mL | ≥ 128 µg/mL |  |  |  | MIC (MRSA (NRS70, NRS119); [3]): ≥ 64 µg/mL; MIC (C. difficile; [4]): ≥ 64 µg/mL
Cc1nnc(NC(=O)c2ccnc(-c3ccc(Cl)c(Cl)c3)c2)o1 [Compound 19, 2-(3,4-Dichlorophenyl)-N-(5-methyl-1,3,4-oxadiazol-2-yl)isonicotinamide] | ≥ 256 µg/mL | 64 µg/mL (≈ 183 µM) |  |  |  | MIC (MRSA (NRS70, NRS119); [3]): ≥ 64 µg/mL; MIC (C. difficile; [4]): ≥ 64 µg/mL
CNC(=O)c1ccnc(-c2ccc(Cl)c(Cl)c2)c1 [Compound 20, 2-(3,4-Dichlorophenyl)-N-methylisonicotinamide] | ≥ 256 µg/mL | 64 µg/mL (≈ 228 µM) |  |  |  | MIC (MRSA (NRS70, NRS119); [3]): ≥ 64 µg/mL; MIC (C. difficile; [4]): ≥ 64 µg/mL
O=C(Nc1nc2ncccc2o1)c1ccnc(-c2ccc(Cl)c(Cl)c2)c1 [Compound 22, 2-(3,4-Dichlorophenyl)-N-(oxazolo[4,5-b]pyridin-2-yl)isonicotinamide] | 0.25 µg/mL (≈ 0.649 µM) | 0.0625 µg/mL (≈ 0.162 µM) |  |  |  | 
CCOC(=O)c1cnc(NC(=O)c2ccnc(-c3ccc(Cl)c(Cl)c3)c2)o1 [Compound 23, Ethyl 2-(2-(3,4-dichlorophenyl)isonicotinamido)oxazole-5-carboxylate] | 0.06 µg/mL (≈ 0.148 µM) | 0.0625 µg/mL (≈ 0.154 µM) |  |  |  | 
O=C(Nc1ncc(C(=O)O)o1)c1ccnc(-c2ccc(Cl)c(Cl)c2)c1 [Compound 24, 2-(2-(3,4-Dichlorophenyl)isonicotinamido)oxazole-5-carboxylic acid] | 64 µg/mL (≈ 169 µM) | 128 µg/mL (≈ 338 µM) |  |  |  | 
C#CCCCCCOC(=O)c1cnc(NC(=O)c2ccnc(-c3ccc(Cl)c(Cl)c3)c2)o1 [Compound 25, Hept-6-yn-1-yl 2-(2-(3,4-dichlorophenyl)isonicotinamido)oxazole-5-carboxylate] | 0.06 µg/mL (≈ 0.127 µM) | 0.25 µg/mL (≈ 0.529 µM) |  |  |  | 
O=C(Nc1ncc(C(=O)OCCCCCCO)o1)c1ccnc(-c2ccc(Cl)c(Cl)c2)c1 [Compound 26, 6-Hydroxyhexyl 2-(2-(3,4-dichlorophenyl)isonicotinamido)oxazole-5-carboxylate] | 0.25 µg/mL (≈ 0.523 µM) | 0.25 µg/mL (≈ 0.523 µM) |  |  |  | 
CC(C)(C)OC(=O)NCCCCCCOC(=O)c1cnc(NC(=O)c2ccnc(-c3ccc(Cl)c(Cl)c3)c2)o1 [Compound 27, 6-((Tert-butoxycarbonyl)amino)hexyl 2-(2-(3,4-dichlorophenyl)isonicotinamido) oxazole-5-carboxylate] |  |  |  |  |  | MIC MRSA (MRSA (NRS70, NRS119); NRS70 strain, Table 2 (SAR^1)): 16 µg/mL (≈ 27.7 µM); MIC C. difficile (C. difficile; Table 2 (SAR^1)): 8 µg/mL (≈ 13.9 µM)
O=C(Nc1ncc(C(=O)N2CCOCC2)o1)c1ccnc(-c2ccc(Cl)c(Cl)c2)c1 [Compound 29, 2-(3,4-Dichlorophenyl)-N-(5-(morpholine-4-carbonyl)oxazol-2-yl)isonicotinamide] | 2 µg/mL (≈ 4.47 µM) | 0.125 µg/mL (≈ 0.279 µM) |  |  |  | 
CC(C)(C)OC(=O)N1CCN(C(=O)c2cnc(NC(=O)c3ccnc(-c4ccc(Cl)c(Cl)c4)c3)o2)CC1 [Compound 30, Tert-butyl 4-(2-(2-(3,4-Dichlorophenyl)isonicotinamido)oxazole-5-carbonyl) piperazine-1-carboxylate] |  |  |  |  |  | MIC MRSA (MRSA (NRS70, NRS119); NRS70 strain, Table 2 (SAR^1)): 2 µg/mL (≈ 3.66 µM); MIC C. difficile (C. difficile; Table 2 (SAR^1)): 0.25 µg/mL (≈ 0.458 µM)
Cl.Cl.O=C(Nc1ncc(C(=O)N2CCNCC2)o1)c1ccnc(-c2ccc(Cl)c(Cl)c2)c1 [Compound 31, 2-(3,4-Dichlorophenyl)-N-(5-(piperazine-1-carbonyl)oxazol-2-yl)isonicotinamide dihydrochloride] | 16 µg/mL | 8 µg/mL |  |  |  | 
O=C(Nc1ncco1)c1ccnc(-c2ccccc2Cl)c1 [Compound 34, 2-(2-Chlorophenyl)-N-(oxazol-2-yl)isonicotinamide] |  |  | 8 µg/mL (≈ 26.7 µM) | 4 µg/mL (≈ 13.3 µM) | 2 | 
O=C(Nc1ncco1)c1ccnc(-c2ccccc2F)c1 [Compound 38, 2-(2-Fluorophenyl)-N-(oxazol-2-yl)isonicotinamide] |  |  | 1 µg/mL (≈ 3.53 µM) | 4 µg/mL (≈ 14.1 µM) | 0.25 | 
O=C(Nc1ncco1)c1ccnc(-c2cc(F)cc(F)c2)c1 [Compound 42, 2-(3,5-Difluorophenyl)-N-(oxazol-2-yl)isonicotinamide] |  |  | 8 µg/mL (≈ 26.6 µM) | 0.5 µg/mL (≈ 1.66 µM) | 16 | 
O=C(Nc1ncco1)c1ccnc(-c2ccc([N+](=O)[O-])cc2)c1 [Compound 49, 2-(4-Nitrophenyl)-N-(oxazol-2-yl)isonicotinamide] |  |  | 64 µg/mL (≈ 206 µM) | 1 µg/mL (≈ 3.22 µM) | 64 | 
O=C(Nc1ncco1)c1ccnc(-c2cccc([N+](=O)[O-])c2)c1 [Compound 50, 2-(3-Nitrophenyl)-N-(oxazol-2-yl)isonicotinamide] |  |  | ≥ 256 µg/mL | 2 µg/mL (≈ 6.45 µM) | ≥128 | 
COc1ccc(-c2cc(C(=O)Nc3ncco3)ccn2)cc1 [Compound 51, 2-(4-Methoxyphenyl)-N-(oxazol-2-yl)isonicotinamide] |  |  | 8 µg/mL (≈ 27.1 µM) | 4 µg/mL (≈ 13.5 µM) | 2 | 
CC(C)Oc1ccc(-c2cc(C(=O)Nc3ncco3)ccn2)cc1 [Compound 52, 2-(4-Isopropoxyphenyl)-N-(oxazol-2-yl)isonicotinamide] |  |  | 4 µg/mL (≈ 12.4 µM) | 2 µg/mL (≈ 6.19 µM) | 2 | 
COc1ccc(-c2cc(C(=O)Nc3ncco3)ccn2)cc1OC [Compound 53, 2-(3,4-Dimethoxyphenyl)-N-(oxazol-2-yl)isonicotinamide] |  |  | 64 µg/mL (≈ 197 µM) | 16 µg/mL (≈ 49.2 µM) | 4 | 
COc1ccc(-c2cc(C(=O)Nc3ncco3)ccn2)cc1Cl [Compound 54, 2-(3-Chloro-4-methoxyphenyl)-N-(oxazol-2-yl)isonicotinamide] |  |  | 1 µg/mL (≈ 3.03 µM) | 0.5 µg/mL (≈ 1.52 µM) | 2 | 
N#Cc1cccc(-c2cc(C(=O)Nc3ncco3)ccn2)c1 [Compound 55, 2-(3-Cyanophenyl)-N-(oxazol-2-yl)isonicotinamide] |  |  | 32 µg/mL (≈ 110 µM) | 4 µg/mL (≈ 13.8 µM) | 8 | 
O=C(Nc1ncco1)c1ccnc(-c2ccc(OCc3ccccc3)cc2)c1 [Compound 56, 2-(4-(Benzyloxy)phenyl)-N-(oxazol-2-yl)isonicotinamide] |  |  | 8 µg/mL (≈ 21.5 µM) | 4 µg/mL (≈ 10.8 µM) | 2 | 
CC(=O)NC[C@H]1CN(c2ccc(N3CCOCC3)c(F)c2)C(=O)O1 [linezolid, reference compound] |  |  |  |  |  | MIC (C. difficile; [7]): 2 µg/mL
CO[C@H]1/C=C/O[C@@]2(C)Oc3c(C)c(O)c4c(O)c(c5c(nc6cc(C)ccn65)c4c3C2=O)NC(=O)/C(C)=C\C=C\[C@H](C)[C@H](O)[C@@H](C)[C@@H](O)[C@@H](C)[C@H](OC(C)=O)[C@@H]1C [rifaximin, reference compound] |  |  |  |  |  | MIC (C. difficile; [7]): 0.03 µg/mL
